Data published in paper PMC5374441 (Scientific Reports, 2017).
Like-named read-outs stand apart in the source and are kept apart here. Bridge positions count the residues as written; N and C are the ends. Peptide text beside a SMILES is read from it.

Key:
Assay in all cases: biochemical
Assay type in all cases: binding
Ls-AChBP = molecular target: T1, Ls-AChBP (Lymnaea stagnalis, UniProt P58154)
T1 construct: made in house

Ac-AChBP = molecular target: T2, Ac-AChBP (Aplysia californica, UniProt Q8WSF8); settings: SEM
T2 construct: made in house

Q55K Ls-AChBP mutant = molecular target: T3, Q55K Ls-AChBP mutant (Lymnaea stagnalis, UniProt P58154, Q74K)
T3 construct: made in house; Top10 E. coli is named only for plasmid propagation

SMILES | IC50 (Ls-AChBP) [nM] | IC50 (Ac-AChBP) [nM] | IC50 (Ls-AChBP; SEM) [nM] | activity at Ls-AChBP (in words) (Ls-AChBP) | IC50 (Q55K Ls-AChBP mutant) [nM] | IC50 (Q55K Ls-AChBP mutant; SEM) [nM]
CC[C@H](C)[C@@H]1NC(=O)[C@H](CC(N)=O)NC(=O)[C@@H]2CCCN2C(=O)[C@H](CC(N)=O)NC(=O)[C@H](CC(=O)O)NC(=O)[C@H](C(C)C)NC(=O)[C@H](CCCNC(=N)N)NC(=O)[C@@H]2CSSC[C@H](NC(=O)CNC(=O)[C@@H](N)CO)C(=O)N[C@@H](CSSC[C@@H](C(N)=O)NC1=O)C(=O)N[C@@H](CO)C(=O)N[C@@H](CC(N)=O)C(=O)N1CCC[C@H]1C(=O)N[C@@H](C)C(=O)N2 [N12D-LsIA] (H-SGCCSNPACRVDNPNIC-NH2; disulfide 3-9, 4-17) | > 10000 | 5550 | – | – | – | –
CC[C@H](C)[C@@H]1NC(=O)[C@H](CC(N)=O)NC(=O)[C@@H]2CCCN2C(=O)[C@H](CC(N)=O)NC(=O)[C@H](CC(C)C)NC(=O)[C@H](C(C)C)NC(=O)[C@H](CCCNC(=N)N)NC(=O)[C@@H]2CSSC[C@H](NC(=O)CNC(=O)[C@@H](N)CO)C(=O)N[C@@H](CSSC[C@@H](C(N)=O)NC1=O)C(=O)N[C@@H](CO)C(=O)N[C@@H](CC(N)=O)C(=O)N1CCC[C@H]1C(=O)N[C@@H](C)C(=O)N2 [N12L-LsIA] (H-SGCCSNPACRVLNPNIC-NH2; disulfide 3-9, 4-17) | > 10000 | 61 ± 7 | – | – | – | –
CC[C@H](C)[C@@H]1NC(=O)[C@H](CC(N)=O)NC(=O)[C@@H]2CCCN2C(=O)[C@H](CC(N)=O)NC(=O)[C@H](CCC(N)=O)NC(=O)[C@H](C(C)C)NC(=O)[C@H](CCCNC(=N)N)NC(=O)[C@@H]2CSSC[C@H](NC(=O)CNC(=O)[C@@H](N)CO)C(=O)N[C@@H](CSSC[C@@H](C(N)=O)NC1=O)C(=O)N[C@@H](CO)C(=O)N[C@@H](CC(N)=O)C(=O)N1CCC[C@H]1C(=O)N[C@@H](C)C(=O)N2 [N12Q-LsIA] (H-SGCCSNPACRVQNPNIC-NH2; disulfide 3-9, 4-17) | – | 55.2 ± 0.9 | 2440 ± 750 | – | – | –
CC[C@H](C)[C@@H]1NC(=O)[C@H](CC(N)=O)NC(=O)[C@@H]2CCCN2C(=O)[C@H](CC(N)=O)NC(=O)[C@H](CC(N)=O)NC(=O)[C@H](C(C)C)NC(=O)[C@H](CC(=O)O)NC(=O)[C@@H]2CSSC[C@H](NC(=O)CNC(=O)[C@@H](N)CO)C(=O)N[C@@H](CSSC[C@@H](C(N)=O)NC1=O)C(=O)N[C@@H](CO)C(=O)N[C@@H](CC(N)=O)C(=O)N1CCC[C@H]1C(=O)N[C@@H](C)C(=O)N2 [R10D-LsIA] (H-SGCCSNPACDVNNPNIC-NH2; disulfide 3-9, 4-17) | > 10000 | 8370 | – | inactive | > 10000 | –
CC[C@H](C)[C@@H]1NC(=O)[C@H](CC(N)=O)NC(=O)[C@@H]2CCCN2C(=O)[C@H](CC(N)=O)NC(=O)[C@H](CC(N)=O)NC(=O)[C@H](C(C)C)NC(=O)[C@H](Cc2ccccc2)NC(=O)[C@@H]2CSSC[C@H](NC(=O)CNC(=O)[C@@H](N)CO)C(=O)N[C@@H](CSSC[C@@H](C(N)=O)NC1=O)C(=O)N[C@@H](CO)C(=O)N[C@@H](CC(N)=O)C(=O)N1CCC[C@H]1C(=O)N[C@@H](C)C(=O)N2 [R10F-LsIA] (H-SGCCSNPACFVNNPNIC-NH2; disulfide 3-9, 4-17) | – | 2.2 ± 0.05 | 110 ± 20 | – | – | 800 ± 260
CC[C@H](C)[C@@H]1NC(=O)[C@H](CC(N)=O)NC(=O)[C@@H]2CCCN2C(=O)[C@H](CC(N)=O)NC(=O)[C@H](CC(N)=O)NC(=O)[C@H](C(C)C)NC(=O)[C@H](CCSC)NC(=O)[C@@H]2CSSC[C@H](NC(=O)CNC(=O)[C@@H](N)CO)C(=O)N[C@@H](CSSC[C@@H](C(N)=O)NC1=O)C(=O)N[C@@H](CO)C(=O)N[C@@H](CC(N)=O)C(=O)N1CCC[C@H]1C(=O)N[C@@H](C)C(=O)N2 [R10M-LsIA] (H-SGCCSNPACMVNNPNIC-NH2; disulfide 3-9, 4-17) | – | 1.88 ± 0.65 | 500 ± 160 | – | – | 7100 ± 2500
